Values of other authors, collected in patent publication US20170245500A1 (priority 2014, published 2017).

Settings: some conditions, e.g. high temperature or higher soil pH

CCOP(=O)(SC(C)CC)N1CCSC1=O (stereo not shown) [fosthiazate]
time in which the pesticide can be degraded in soil: under ten
